According to patent publication US20260207483A1, “PHARMACEUTICAL CO[…] FOR THE TREATMENT OF OPHTHALMIC CONDITIONS” (Adtech Pharma, Inc., priority 2022, published 2026):

What was measured:
[1] = Solubility of nabilone in water and common solvents (USP classification); format: physicochemical
Text: Nabilone is difficult to solubilize in most solvents such that preparing a liquid composition comprising nabilone is very challenging. […] These solvents are not suitable for use in human pharmaceutical formulations.

[2] = Solubility of nabilone in sesame oil; format: physicochemical; conditions: 5% w/w of nabilone in sesame oil; for Nabilone recovered from oil phase (w/w in mg/mL): 250 mg/g added
Text: It is also challenging to solubilize nabilone in pharmaceutically acceptable oils, even at elevated temperatures.

Compound: CCCCCCC(C)(C)c1cc(O)c2c(c1)OC(C)(C)C1CCC(=O)CC21 (centres unmarked) [Nabilone]
- USP Classification of solubility ([1]; 1,4-Dioxane): Freely Soluble
- USP Classification of solubility ([1]; 2-Methyltetrahydrofuran): Freely Soluble
- USP Classification of solubility ([1]; Acetone): Freely Soluble
- USP Classification of solubility ([1]; Dichloromethane): Freely Soluble
- USP Classification of solubility ([1]; Dimethoxyethane): Freely Soluble
- USP Classification of solubility ([1]; Dimethyl sulfoxide): Freely Soluble
- USP Classification of solubility ([1]; Dimethylformamide): Freely Soluble
- USP Classification of solubility ([1]; Methyl ethyl ketone): Freely Soluble
- USP Classification of solubility ([1]; Tetrahydrofuran): Freely Soluble
- USP Classification of solubility ([1]; p-Xylene): Freely Soluble
- Solubility in water (USP classification) ([1]; water at any pH): insoluble
- Observation After Centrifuge (14000 rpm, 10 minutes) ([2]; not heated): Clear solution
- Observation Before Centrifuge ([2]; not heated): Turbid
- Nabilone recovered from oil phase (w/w in mg/mL) ([2]; not heated): 3.9 mg/mL
- Observation After Centrifuge (14000 rpm, 10 minutes) ([2]; heated to 90° C. for 3 hours): Clear solution
- Observation Before Centrifuge ([2]; heated to 90° C. for 3 hours): Turbid
- Nabilone recovered from oil phase (w/w in mg/mL) ([2]; heated to 90° C. for 3 hours): 6.3 mg/mL
